These molecules were tested against T1, CYP4A (Homo sapiens, UniProt Q02928) (assay: CYP4A enzyme assay (luminescence, Luciferin-ME)). Conditions: Compound concentration 5 μM; 50%-70%; read-out: % Inhibition 50%-70%.
T1 construct: purchased; host or cells: bacterial membranes ('bactosome')
T1 sequence (Q02928 5-519): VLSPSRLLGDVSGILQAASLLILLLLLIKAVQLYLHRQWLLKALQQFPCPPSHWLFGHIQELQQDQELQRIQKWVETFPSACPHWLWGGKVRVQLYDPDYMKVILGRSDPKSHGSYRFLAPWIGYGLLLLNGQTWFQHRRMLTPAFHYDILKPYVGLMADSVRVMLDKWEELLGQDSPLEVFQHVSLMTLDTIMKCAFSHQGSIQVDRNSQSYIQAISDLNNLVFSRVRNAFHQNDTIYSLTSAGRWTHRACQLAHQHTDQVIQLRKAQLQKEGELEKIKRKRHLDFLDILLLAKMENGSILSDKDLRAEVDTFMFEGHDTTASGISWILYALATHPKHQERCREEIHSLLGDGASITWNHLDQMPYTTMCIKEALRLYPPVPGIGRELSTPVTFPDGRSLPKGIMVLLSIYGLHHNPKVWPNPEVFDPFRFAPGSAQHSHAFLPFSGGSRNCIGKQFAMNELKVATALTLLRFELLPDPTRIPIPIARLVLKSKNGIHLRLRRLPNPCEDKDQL
Assay type: biochemical
Method: The CYP4A inhibitory activity of the above compounds of the examples was measured. The reagents used in the experiment were commercially available, and were prepared and used when necessary. The device used for measuring activity was SpectraMax of MOLECULAR DEVICES.
CYP4A bactosome and the compounds to be evaluated (5 μM) were each diluted in assay buffer (100 mM KPO4, 0.1% BSA, 1 mM DTT) and mixed in a 384 well plate (white opaque polystyrene nontreated flat-bottom well), and reaction was carried out at room temperature for 15 minutes. To induce CYP4A reaction, 5 mM Luciferin-ME, NADPH Regeneration system (10× sol. A, 20× sol. B in assay buffer, Cat. Number: V865B, Promega) were sequentially added and mixed, and the reaction was carried out at room temperature for 30 minutes. Then, Luciferin Detection reagent was added thereto and reacted at room temperature for 15 minutes to stop the CYP4A reaction and induce a luminescence reaction. Finally, after measuring the luminescence value using a microplate reader, the inhibition of CYP4A activity by the compounds was evaluated by comparing the luminescence value from each well.
In the case of `Cc1cc(N2CCN(C(=O)C3CCCN(C(=O)c4ccccc4)C3)CC2)c2ccccc2n1` (centres unmarked) [Example 102, (1-benzoylpiperidin-3-yl)(4-(2-methylquinolin-4-yl)piperazin-1-yl)methanone], the inhibition at 5 µM is reported as 50 to 70%.
`Cc1nc(N2CCN(C(=O)C3CCCN(S(=O)(=O)c4ccc(F)cc4)C3)CC2)c2ccccc2n1` (centres unmarked) [Example 81, (1-(4-fluorophenylsulfonyl)piperidin-3-yl)(4-(2-methylquinazolin-4-yl)piperazin-1-yl)methanone] showed an inhibition at 5 µM of 50 to 70%.
Molecule `O=C(C1CCN(Cc2ccc([N+](=O)[O-])cc2)C1)N1CCN(c2ccnc3ccccc23)CC1` (centres unmarked) [Example 153, (1-(4-nitrobenzyl)pyrrolidin-3-yl)(4-(quinolin-4-yl)piperazin-1-yl)methanone] has an inhibition at 5 µM of 50 to 70%.
With `O=C(C1CCCN(S(=O)(=O)C2CC2)C1)N1CCN(c2ccnc3cc(F)ccc23)CC1` (centres unmarked) [Example 119, (1-(cyclopropylsulfonyl)piperidin-3-yl)(4-(7-fluoroquinolin-4-yl)piperazin-1-yl)methanone] the inhibition at 5 µM was 50 to 70%.
Work on `Cc1ccc(S(=O)(=O)N2CCCC(C(=O)N3CCN(c4ncnc5ccccc45)CC3)C2)cc1` (centres unmarked) [Example 75, (4-(quinazolin-4-yl)piperazin-1-yl)(1-tosylpiperidin-3-yl)methanone] yielded an inhibition at 5 µM of 50 to 70%.
For `COc1ccc(C(=O)N2CCCC(C(=O)N3CCN(c4ccnc5cc(Cl)ccc45)CC3)C2)cc1` (centres unmarked) [Example 88, (4-(7-chloroquinolin-4-yl)piperazin-1-yl)(1-(4-methoxyphenylcarbonyl)piperidin-3-yl)methanone], the inhibition at 5 µM was 50 to 70%.
`O=C(C1CCCN(C(=O)C2CCCCC2)C1)N1CCN(c2ccnc3cc(F)ccc23)CC1` (centres unmarked) [Example 108, (1-(cyclohexylcarbonyl)piperidin-3-yl)(4-(7-fluoroquinolin-4-yl)piperazin-1-yl)methanone] was tested, and the inhibition at 5 µM was 50 to 70%.

Same assay, conditions: Compound concentration 5 μM; 70%-90%; read-out: % Inhibition 70%-90%
In the case of `CC(=O)Nc1ccc(C(=O)N2CCCC(C(=O)N3CCN(c4ccnc5cc(F)ccc45)CC3)C2)cc1` (centres unmarked) [Example 105, N-(4-(3-(4-(7-fluoroquinolin-4-yl)piperazine-1-carbonyl)piperidine-1-carbonyl)phenyl)acetamide], the inhibition at 5 µM is reported as 70 to 90%.
In the case of `O=C(C1CCN(S(=O)(=O)c2cccs2)C1)N1CCN(c2ccnc3ccccc23)CC1` (centres unmarked) [Example 36, (4-(quinolin-4-yl)piperazin-1-yl)(1-(thiophen-2-ylsulfonyl)pyrrolidin-3-yl)methanone], the inhibition at 5 µM is reported as 70 to 90%.
For `O=C(C1CCCN(S(=O)(=O)C2CCCCC2)C1)N1CCN(c2ccnc3cc(F)ccc23)CC1` (centres unmarked) [Example 117, (1-(cyclohexylsulfonyl)piperidin-3-yl)(4-(7-fluoroquinolin-4-yl)piperazin-1-yl)methanone], the inhibition at 5 µM was 70 to 90%.
Work on `Cc1nn(C)c(C)c1S(=O)(=O)N1CC[C@H](C(=O)N2CCN(c3ccnc4ccccc34)CC2)C1` [Example 151, (S)-(4-(quinolin-4-yl)piperazin-1-yl)(1-((1,3,5-trimethyl-1H-pyrazol-4-yl)sulfonyl)pyrrolidin-3-yl)methanone] yielded an inhibition at 5 µM of 70 to 90%.
`O=C([C@H]1CCN(S(=O)(=O)c2ncn[nH]2)C1)N1CCN(c2cc(C(F)(F)F)nc3ccccc23)CC1` [Example 167, (S)-(1-((1H-1,2,4-triazol-5-yl)sulfonyl)pyrrolidin-3-yl)(4-(2-(trifluoromethyl)quinolin-4-yl)piperazin-1-yl)methanone] gave an inhibition at 5 µM of 70 to 90%.
In the case of `O=C(C1CCN(S(=O)(=O)c2ccc(Br)cc2)C1)N1CCN(c2ccnc3ccccc23)CC1` (centres unmarked) [Example 31, (1-((4-bromophenyl)sulfonyl)pyrrolidin-3-yl)(4-(quinolin-4-yl)piperazin-1-yl)methanone], the inhibition at 5 µM is reported as 70 to 90%.
For `O=C(C1CCN(Cc2nnn[nH]2)C1)N1CCN(c2ccnc3cc(F)ccc23)CC1` (centres unmarked) [Example 155, (1-((1H-tetrazol-5-yl)methyl)pyrrolidin-3-yl)(4-(7-fluoroquinolin-4-yl)piperazin-1-yl)methanone], the inhibition at 5 µM was 70 to 90%.

Same assay, conditions: Compound concentration 5 μM; Greater than 90%; read-out: % Inhibition Greater than 90%
Work on `O=C(C1CCN(S(=O)(=O)c2ccc(-c3cnco3)cc2)C1)N1CCN(c2ccnc3cc(F)ccc23)CC1` (centres unmarked) [Example 15, (4-(7-fluoroquinolin-4-yl)piperazin-1-yl)(1-((4-(oxazol-5-yl)phenyl)sulfonyl)pyrrolidin-3-yl)methanone] yielded an inhibition at 5 µM greater than 90%.
`O=C(C1CCN(S(=O)(=O)c2ncc[nH]2)C1)N1CCN(c2ccnc3ccccc23)CC1` (centres unmarked) [Example 42, (1-((1H-imidazol-2-yl)sulfonyl)pyrrolidin-3-yl)(4-(quinolin-4-yl)piperazin-1-yl)methanone] gave an inhibition at 5 µM greater than 90%.
For `COCCn1ccnc1S(=O)(=O)N1CC[C@H](C(=O)N2CCN(c3ccnc4cc(F)ccc34)CC2)C1` [Example 149, (S)-(4-(7-fluoroquinolin-4-yl)piperazin-1-yl)(1-((1-(2-methoxyethyl)-1H-imidazol-2-yl)sulfonyl)pyrrolidin-3-yl)methanone], the inhibition at 5 µM was greater than 90%.
`Cc1nc(C)c(S(=O)(=O)N2CCC(C(=O)N3CCN(c4ccnc5ccccc45)CC3)C2)s1` (centres unmarked) [Example 40, (1-((2,4-dimethylthiazol-5-yl)sulfonyl)pyrrolidin-3-yl)(4-(quinolin-4-yl)piperazin-1-yl)methanone] showed an inhibition at 5 µM greater than 90%.
With `Cc1nc(S(=O)(=O)N2CC[C@H](C(=O)N3CCN(c4ccnc5cc(F)ccc45)CC3)C2)n[nH]1` [Example 166, (S)-(4-(7-fluoroquinolin-4-yl)piperazin-1-yl)(1-((5-methyl-1H-1,2,4-triazol-3-yl)sulfonyl)pyrrolidin-3-yl)methanone] the inhibition at 5 µM was greater than 90%.
With `Cn1cnc(S(=O)(=O)N2CCC(C(=O)N3CCN(c4ccnc5ccccc45)CC3)C2)c1` (centres unmarked) [Example 46, (1-((1-methyl-1H-imidazol-4-yl)sulfonyl)pyrrolidin-3-yl)(4-(quinolin-4-yl)piperazin-1-yl)methanone] the inhibition at 5 µM was greater than 90%.
With `O=C(C1CN(S(=O)(=O)c2ccc(-c3ccncc3)cc2)C1)N1CCN(c2ccnc3cc(F)ccc23)CC1` [Example 69, (4-(7-fluoroquinolin-4-yl)piperazin-1-yl)(1-((4-(pyridin-4-yl)phenyl)sulfonyl)azetidin-3-yl)methanone] the inhibition at 5 µM was greater than 90%.
In the case of `CC(=O)Nc1ccc(S(=O)(=O)N2CC(C(=O)N3CCN(c4ccnc5cc(F)ccc45)CC3)C2)cc1` [Example 65, N-(4-((3-(4-(7-fluoroquinolin-4-yl)piperazine-1-carbonyl)azetidin-1-yl)sulfonyl)phenyl)acetamide], the inhibition at 5 µM is reported as greater than 90%.
Work on `CC(=O)Nc1cccc(S(=O)(=O)N2CC(C(=O)N3CCN(c4ccnc5cc(F)ccc45)CC3)C2)c1` [Example 73, N-(3-((3-(4-(7-fluoroquinolin-4-yl)piperazine-1-carbonyl)azetidin-1-yl)sulfonyl)phenyl)acetamide] yielded an inhibition at 5 µM greater than 90%.
With `O=C(C1CCN(S(=O)(=O)c2ccc(-c3cccc(O)c3)nc2)C1)N1CCN(c2ccnc3ccccc23)CC1` (centres unmarked) [Example 27, (1-((6-(3-hydroxyphenyl)pyridin-3-yl)sulfonyl)pyrrolidin-3-yl)(4-(quinolin-4-yl)piperazin-1-yl)methanone] the inhibition at 5 µM was greater than 90%.
In the case of `O=C(C1CN(S(=O)(=O)c2ncn[nH]2)C1)N1CCN(c2ccnc3cc(F)ccc23)CC1` [Example 137, (1-((1H-1,2,4-triazol-5-yl)sulfonyl)azetidin-3-yl)(4-(7-fluoroquinolin-4-yl)piperazin-1-yl)methanone], the inhibition at 5 µM is reported as greater than 90%.
`Cc1n[nH]c(C)c1S(=O)(=O)N1CCC(C(=O)N2CCN(c3ccnc4cc(F)ccc34)CC2)C1` (centres unmarked) [Example 11, (1-((3,5-dimethyl-1H-pyrazol-4-yl)sulfonyl)pyrrolidin-3-yl)(4-(7-fluoroquinolin-4-yl)piperazin-1-yl)methanone] showed an inhibition at 5 µM greater than 90%.
`Cc1n[nH]c(C)c1S(=O)(=O)N1CCC(C(=O)N2CCN(c3ccnc4ccccc34)CC2)C1` (centres unmarked) [Example 45, (1-((3,5-dimethyl-1H-pyrazol-4-yl)sulfonyl)pyrrolidin-3-yl)(4-(quinolin-4-yl)piperazin-1-yl)methanone] gave an inhibition at 5 µM greater than 90%.

Same assay, conditions: Compound concentration 5 μM; Less than 50%; read-out: % Inhibition Less than 50%
`Cc1cc(N2CCN(C(=O)C3CCCN(C(=O)C4CCCCC4)C3)CC2)c2ccccc2n1` (centres unmarked) [Example 103, (1-(cyclohexylcarbonyl)piperidin-3-yl)(4-(2-methylquinolin-4-yl)piperazin-1-yl)methanone] showed an inhibition at 5 µM of less than 50%.
`O=C(C1CCCN(C(=O)C2CCCCC2)C1)N1CCN(c2cc(C(F)(F)F)nc3ccccc23)CC1` (centres unmarked) [Example 97, (1-(cyclohexylcarbonyl)piperidin-3-yl)(4-(2-(trifluoromethyl)quinolin-4-yl)piperazin-1-yl)methanone] gave an inhibition at 5 µM of less than 50%.
